Data published in US20080090788A1, “Chemical Compounds” (priority 2005, published 2008).

Assays:
NF-kB = NF-kB luciferase reporter activity in LPS-stimulated U937-kBluc cells; assay type: cell-based, human; conditions: for average luciferase activity, % of the activity in DMSO treated cells: 2 mM, ±SD; for IC50: Homo sapiens, U937-kBluc cells, LPS 0.3 μg/ml, 6 hours, mean of duplicate determinations ±SD, read-out: IC50 for inhibition of LPS-induced NF-kB activity
Method: U937-kBluc cells were cultured in a 96 well plate (2×10^4 cells in 100 μl in each well) and stimulated with 0.3 μg/ml LPS (lipopolysaccaride; Sigma Aldrich). After 6 hours, cells were collected and luciferase activity determined using the luclite reagent (Perkin Elmer UK, Beaconsfield, UK) and a Packard TopCount (Perkin Elmer), as described by the manufacturer. To determine the effect of SFZ and analogues, various concentrations of each compound or an equivalent amount of DMSO as a solvent control were added 1 hour prior to addition of LPS. Each determination was made in triplicate. A cell line containing an NF-kB reporter construct was used to determine the effects of SFZ analogues on NF-kB activity. Cells were treated with LPS to induce NF-kB activity in the presence or absence of each compound, or DMSO as a solvent control, and luciferase activity analysed as a measure of NF-kB dependent transcription (FIG. 1). […] U937-kBluc cells were treated with LPS to activate NF-kB in the presence of increasing concentrations of SFZ, derivatives (3a-f), or DMSO as a solvent control. For each concentration of compound, the percentage inhibition of luciferase activity relative to cells treated with an equivalent amount of DMSO was calculated. (A) Representative dose response experiment (♦, 3a; ▪, SFZ). Each data point is the mean of triplicate samples (±SEM). (B) Detailed dose response assays were performed for compounds which gave >50% inhibition at 2 mM. The mean IC50 value (±SD) for inhibition of LPS-induced NF-kB activity is derived from 2 independent experiments, each performed in triplicate.

ARH77 cells = assay type: cell-based; conditions: human, 4 days, 2 mM
Method: To determine the growth inhibitory effects of compounds 2a, SPY, 2c, 2d, ARH77 cells (2×10^4 cells in 100 μl in each well of a 96 well plate) were incubated with each compound or an equivalent amount of DMSO. Four days later, cell growth was determined using the Aqueous One Solution Cell Proliferation Assay (MTS) (Promega) according to the manufacturer's instructions. Each determination was made in triplicate. Relative cell growth was determined by subtracting the absorbance of wells containing medium and lacking cells, and dividing by absorbance values derived from cells treated with an equivalent volume of DMSO.
Reduction of SFZ in the gut to give SPY is thought to be responsible for much of the toxicity associated with therapy. The putative reduction products of the novel SFZ derivatives were associated with increased or decreased toxicity was investigated. ARH77 cells were treated for 4 days with compounds 2a (i.e., putative reduction product of 3a and 3b), 2c (putative reduction product of 3d), and 2d (putative reduction product of 3e and 3f), and SPY (reduction product of SFZ and 3c). Cell growth was determined using an MTS assay. The percent growth inhibition at 2 mM (FIG. 6) was measured. […] Cytotoxicity of 2a and 2c was slightly less than SPY with 27±8% and 24±3% growth inhibition, respectively. 2d was essentially non-toxic in this assay with −6±16% growth inhibition. The ability of compounds 2a, 2c and 2d to interfere with NF-kB activity in LPS treated U937-kBluc cells was also tested.
ARH77 cells were incubated with 2 mM of 2a, 2c, 2d, SPY or DMSO as a solvent control. After 4 days, cell growth was determined using an MTS assay. Percentage growth inhibition for each compound relative to DMSO treated cells was determined. Mean growth inhibition is shown (±SD). Data are derived from two separate experiments, each performed in triplicate.

| IC50 (NF-kB) [mM] | Compound | average luciferase activity, % of the activity in DMSO treated cells (NF-kB) [%] | percent growth inhibition (ARH77 cells) [%] |
| --- | --- | --- | --- |
| 1.1 ± 0.04 | Cc1cc(/N=N/c2ccc(S(=O)(=O)Nc3ccccn3)cc2)cc(C(=O)O)c1O [Compound 3c, 2-hydroxy-3-methyl-5-[4-(pyridin-2-ylsulfamoyl)-phenylazo]benzoic acid] |  |  |
| 1.24 ± 0.106 | CNS(=O)(=O)c1ccc(/N=N/c2ccc(O)c(C(=O)O)c2)cc1 [Compound 3d, 2-hydroxy-5-(4-methylsulfamoyl-phenylazo)-benzoic acid] |  |  |
| > 2 | COc1ccc(CNS(=O)(=O)c2ccc(/N=N/c3ccc(O)cc3)cc2)cc1 [Compound 3b] | 87.5±3.3 |  |

Further lines, the compound ahead of its results:

| Compound | IC50 (NF-kB) [mM] | average luciferase activity, % of the activity in DMSO treated cells (NF-kB) [%] | percent growth inhibition (ARH77 cells) [%] |
| --- | --- | --- | --- |
| Nc1ccc(S(=O)(=O)Nc2ccccn2)cc1 [SPY, sulfapyridine, reference compound] | > 2 | 151±71 |  |
| Nc1ccc(S(=O)(=O)NCc2ccc(C(F)(F)F)cc2)cc1 [Compound 2d] |  |  | −6±16 |
| CNS(=O)(=O)c1ccc(N)cc1 [Compound 2c] |  |  | 24±3 |
| Nc1ccc(O)c(C(=O)O)c1 [Compound 5-ASA, 5-amino salicylic acid, reference compound] | > 2 | 121±32 |  |
| COc1ccc(CNS(=O)(=O)c2ccc(N)cc2)cc1 [Compound 2a, N-(p-methoxybenzyl)-4-aminobenzenesulfonamide] |  |  | 27±8 |
